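Exposure lasted 48 hours, with cells grown in 96-well plates and compounds tested at five concentrations. The concentration for 50% growth inhibition is given as GI50. TGI: total growth inhibition.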
Columns and labels:
Assay in all cases: NCI-60 cell line screen, 48 h
SF-295 CNS = tested on: SF-295 CNS
NCI-H460 lung = tested on: NCI-H460 lung
A549 NSCLC = tested on: A549 NSCLC
MALME-3M melanoma = tested on: MALME-3M melanoma
A498 renal = tested on: A498 renal
PC-3 prostate = tested on: PC-3 prostate
NCI/ADR-RES ovarian = tested on: NCI/ADR-RES ovarian
TK-10 renal = tested on: TK-10 renal
RXF 393 renal = tested on: RXF 393 renal
786-0 renal = tested on: 786-0 renal

## Cc1nc2sc(C(=O)Nc3cccc4ccccc34)c(N)c2cc1C(O)c1ccccc1 (stereo not given)
SF-295 CNS
  GI50: 0.0513 µM
  TGI: 4.42 µM
NCI-H460 lung
  GI50: 0.0381 µM
  TGI: 0.449 µM
A549 NSCLC
  GI50: 0.0916 µM
  TGI: > 100 µM
MALME-3M melanoma
  GI50: 0.0558 µM
  TGI: 21.2 µM
A498 renal
  GI50: 0.0202 µM
  TGI: 0.0636 µM
PC-3 prostate
  GI50: 0.118 µM
  TGI: > 38 µM
NCI/ADR-RES ovarian
  GI50: 0.0373 µM
  TGI: 0.968 µM
TK-10 renal
  GI50: 1.57 µM
  TGI: > 91.5 µM
RXF 393 renal
  GI50: 0.0307 µM
  TGI: 24.7 µM
786-0 renal
  GI50: 0.123 µM
  TGI: 9.69 µM

## O=C(O)c1ccc(Oc2nccc(-c3c(-c4ccc(F)cc4)ncn3C3CCNCC3)n2)cc1
SF-295 CNS
  GI50: > 25 µM
  TGI: > 25 µM
NCI-H460 lung
  GI50: > 25 µM
  TGI: > 25 µM
A549 NSCLC
  GI50: > 25 µM
  TGI: > 25 µM
MALME-3M melanoma
  GI50: > 25 µM
  TGI: > 25 µM
A498 renal
  GI50: > 25 µM
  TGI: > 25 µM
PC-3 prostate
  GI50: > 25 µM
  TGI: > 25 µM
NCI/ADR-RES ovarian
  GI50: > 25 µM
  TGI: > 25 µM
TK-10 renal
  GI50: > 25 µM
  TGI: > 25 µM
RXF 393 renal
  GI50: > 25 µM
  TGI: > 25 µM
786-0 renal
  GI50: > 25 µM
  TGI: > 25 µM

## C[C@]12CC[C@@H]3c4cc(-c5ccc(F)cc5)c(O)cc4CC[C@H]3[C@@H]1CC[C@@H]2O
SF-295 CNS
  GI50: 3.98 µM
  TGI: 17.6 µM
NCI-H460 lung
  GI50: 4.26 µM
  TGI: 19.6 µM
A549 NSCLC
  GI50: 6.17 µM
  TGI: 22.9 µM
MALME-3M melanoma
  GI50: 10.1 µM
  TGI: 22 µM
A498 renal
  GI50: 3.39 µM
  TGI: 12.2 µM
PC-3 prostate
  GI50: 4.63 µM
  TGI: 21.8 µM
NCI/ADR-RES ovarian
  GI50: 6.95 µM
  TGI: 65.9 µM
TK-10 renal
  TGI: 21.7 µM
RXF 393 renal
  GI50: 2.66 µM
  TGI: 5.9 µM
786-0 renal
  GI50: 11.9 µM
  TGI: 27.7 µM

## O=C1NC(=O)C(c2ccccc2Cl)=C1Nc1cc(Cl)c(O)c(Cl)c1
SF-295 CNS
  GI50: > 25 µM
  TGI: > 25 µM
NCI-H460 lung
  GI50: > 25 µM
  TGI: > 25 µM
A549 NSCLC
  GI50: > 25 µM
  TGI: > 25 µM
MALME-3M melanoma
  GI50: 17 µM
  TGI: > 25 µM
A498 renal
  GI50: > 25 µM
  TGI: > 25 µM
PC-3 prostate
  GI50: > 23 µM
  TGI: > 25 µM
NCI/ADR-RES ovarian
  GI50: 14.9 µM
  TGI: > 25 µM
TK-10 renal
  GI50: > 25 µM
  TGI: > 25 µM
RXF 393 renal
  GI50: 5.98 µM
  TGI: > 23.5 µM
786-0 renal
  GI50: 23.7 µM
  TGI: > 25 µM

## C[C@@H](O)[C@H](NC(=O)N[C@@H](CC(N)=O)c1nc([C@@H](N)CO)no1)C(=O)O
SF-295 CNS
  GI50: > 100 µM
  TGI: > 100 µM
NCI-H460 lung
  GI50: > 100 µM
  TGI: > 100 µM
A549 NSCLC
  GI50: > 100 µM
  TGI: > 100 µM
MALME-3M melanoma
  GI50: > 100 µM
  TGI: > 100 µM
A498 renal
  GI50: > 100 µM
  TGI: > 100 µM
PC-3 prostate
  GI50: > 100 µM
  TGI: > 100 µM
NCI/ADR-RES ovarian
  GI50: > 100 µM
  TGI: > 100 µM
TK-10 renal
  GI50: > 100 µM
  TGI: > 100 µM
RXF 393 renal
  GI50: > 100 µM
  TGI: > 100 µM
786-0 renal
  GI50: > 100 µM
  TGI: > 100 µM

## COc1ccc(/C(COc2ccc3c(=O)c(-c4ccccc4)coc3c2)=N\O)cc1
SF-295 CNS
  GI50: 2.59 µM
  TGI: 25.5 µM
NCI-H460 lung
  GI50: 4 µM
  TGI: 31.7 µM
A549 NSCLC
  GI50: 14.8 µM
  TGI: > 83.6 µM
MALME-3M melanoma
  GI50: 0.72 µM
  TGI: 5.91 µM
A498 renal
  GI50: 3.22 µM
  TGI: 18.5 µM
PC-3 prostate
  GI50: 6.53 µM
  TGI: 58.7 µM
NCI/ADR-RES ovarian
  GI50: 0.652 µM
  TGI: 35.5 µM
TK-10 renal
  GI50: 0.988 µM
  TGI: 9.22 µM
RXF 393 renal
  GI50: 7.81 µM
  TGI: > 80.7 µM
786-0 renal
  GI50: 16.9 µM
  TGI: 38.5 µM

## COC(=O)c1cc2c3ccccc3n3c(=O)c4cc5ccccc5nc4c(n1)c23
SF-295 CNS
  GI50: > 100 µM
  TGI: > 100 µM
NCI-H460 lung
  GI50: > 100 µM
  TGI: > 100 µM
A549 NSCLC
  GI50: > 100 µM
  TGI: > 100 µM
MALME-3M melanoma
  GI50: > 100 µM
  TGI: > 100 µM
A498 renal
  GI50: > 100 µM
  TGI: > 100 µM
PC-3 prostate
  GI50: > 100 µM
  TGI: > 100 µM
NCI/ADR-RES ovarian
  GI50: > 100 µM
  TGI: > 100 µM
TK-10 renal
  GI50: > 100 µM
  TGI: > 100 µM
RXF 393 renal
  GI50: > 100 µM
  TGI: > 100 µM
786-0 renal
  GI50: > 100 µM
  TGI: > 100 µM

## COc1cc(N2CCC(N3CCN(C)CC3)CC2)ccc1Nc1ncnc(Nc2ccccc2S(=O)(=O)C(C)C)n1
SF-295 CNS
  GI50: 4.55 µM
  TGI: 24 µM
NCI-H460 lung
  GI50: 7.24 µM
  TGI: 25.6 µM
A549 NSCLC
  GI50: 3.17 µM
  TGI: 14.9 µM
MALME-3M melanoma
  GI50: 3.12 µM
  TGI: 20.2 µM
A498 renal
  GI50: 2.3 µM
  TGI: 17.2 µM
PC-3 prostate
  GI50: 5.33 µM
  TGI: > 51.4 µM
NCI/ADR-RES ovarian
  GI50: 7.26 µM
  TGI: 42.6 µM
TK-10 renal
  GI50: 5.21 µM
  TGI: 22 µM
RXF 393 renal
  GI50: 3.42 µM
  TGI: 17.3 µM
786-0 renal
  GI50: 8.55 µM
  TGI: 22.9 µM

## CCCN(CCC)c1ccc(/C=C/c2ccc3cc(OCC)ccc3n2)cc1
SF-295 CNS
  GI50: 22.7 µM
  TGI: > 100 µM
NCI-H460 lung
  GI50: 63.2 µM
  TGI: > 100 µM
A549 NSCLC
  GI50: 75.4 µM
  TGI: > 100 µM
MALME-3M melanoma
  GI50: > 100 µM
  TGI: > 100 µM
A498 renal
  GI50: > 100 µM
  TGI: > 100 µM
PC-3 prostate
  GI50: 56.3 µM
  TGI: > 100 µM
NCI/ADR-RES ovarian
  GI50: > 100 µM
  TGI: > 100 µM
TK-10 renal
  GI50: > 100 µM
  TGI: > 100 µM
RXF 393 renal
  GI50: 5.23 µM
  TGI: 64.1 µM
786-0 renal
  GI50: > 100 µM
  TGI: > 100 µM

## CNC/C(Cl)=N/S(=O)(=O)c1ccc(C)cc1
SF-295 CNS
  TGI: 32.4 µM
NCI-H460 lung
  TGI: 27.2 µM
A549 NSCLC
  TGI: 51.4 µM
MALME-3M melanoma
  TGI: 27.5 µM
A498 renal
  TGI: 54.4 µM
PC-3 prostate
  TGI: 22.8 µM
NCI/ADR-RES ovarian
  TGI: > 100 µM
TK-10 renal
  TGI: 28.6 µM
RXF 393 renal
  TGI: 9.34 µM
786-0 renal
  TGI: 25.2 µM

## CC(=Nc1ccccc1)C1=C(O)C(Cc2ccc(O)cc2)NC1=O (stereo not given)
NCI-H460 lung
  GI50: 0.0794 µM
  TGI: 1.08 µM
A549 NSCLC
  GI50: 0.126 µM
  TGI: > 100 µM
MALME-3M melanoma
  GI50: 0.0477 µM
  TGI: > 100 µM
A498 renal
  GI50: 0.255 µM
PC-3 prostate
  GI50: 0.0538 µM
  TGI: > 100 µM
NCI/ADR-RES ovarian
  GI50: 0.0572 µM
  TGI: 0.793 µM
TK-10 renal
  GI50: 0.252 µM
  TGI: > 100 µM
786-0 renal
  GI50: 0.505 µM
  TGI: > 100 µM

## COc1cccc(/C=C/[N+](=O)[O-])c1
SF-295 CNS
  GI50: 3.07 µM
  TGI: 13.4 µM
NCI-H460 lung
  GI50: 15.1 µM
  TGI: 38.8 µM
A549 NSCLC
  GI50: 5.06 µM
  TGI: 25.4 µM
MALME-3M melanoma
  GI50: 12.1 µM
  TGI: 27.8 µM
A498 renal
  GI50: 3.54 µM
  TGI: 16.5 µM
PC-3 prostate
  GI50: 4.58 µM
  TGI: 17 µM
NCI/ADR-RES ovarian
  GI50: 26.2 µM
  TGI: 97.8 µM
RXF 393 renal
  GI50: 1.83 µM
  TGI: 3.39 µM
786-0 renal
  GI50: 1.9 µM
  TGI: 4.06 µM

## N#Cc1ccc2c(c1)C(=O)c1c-2n(CCCCl)c(=O)c2cc([N+](=O)[O-])ccc12
SF-295 CNS
  GI50: 4.21 µM
  TGI: > 100 µM
NCI-H460 lung
  GI50: 0.395 µM
  TGI: > 100 µM
MALME-3M melanoma
  GI50: 24 µM
  TGI: > 100 µM
A498 renal
  GI50: 22.8 µM
  TGI: 55.3 µM
PC-3 prostate
  GI50: 19.1 µM
  TGI: > 100 µM
NCI/ADR-RES ovarian
  GI50: 6 µM
  TGI: > 100 µM
TK-10 renal
  GI50: 42.9 µM
  TGI: > 100 µM
RXF 393 renal
  GI50: 11.9 µM
  TGI: 37.7 µM
786-0 renal
  GI50: 2.46 µM
  TGI: 7.88 µM
